Experimental data: PMC8617944, “Preclinical Pharmacokinetics and Acute Toxicity in Rats of 5-{[(2E)-3-Bromo-3-carboxyprop-2-enoyl]amino}-2-hydroxybenzoic Acid: A Novel 5-Aminosalicylic Acid Derivative with Potent Anti-Inflammatory Activity” (Molecules, 2021)
“Also recorded” adds a separate entry of the source. Read-outs that look alike come from different tables or passages of the source.

Assays:
[1] = Acute toxicity, up-and-down OECD method (Guideline 425); assay type: in vivo; conditions: both sexes, rat, in vivo, Wistar rats, read-out: Median lethal dose (LD50)
Procedure: (§1) For all experiments, rats were allowed to acclimatize to the lab conditions during one week prior to undergoing assays. For the pharmacokinetic studies, animals were randomly divided into three groups (n = 6, body weight 300 ± 20 g). Eight female rats were employed in the up-and-down acute toxicity procedure. The animals were fasted for 8 h before and 4 h after drug administration but always given free access to water.
(§2) If the first animal dies, the second animal is given a lower dose. A dose progression factor of 3.2 can be used. […] The animals were monitored for 14 days post-dosing and then sacrificed. The LD50 values were calculated with AOTStatPgm.

Wistar rats = assay: as above; assay type: in vivo
Procedure: as §1, §2

[2] = tested on: 12-O-tetradecanoylphorbol acetate (TPA)-induced mouse ear edema; design: method as in ref 32, 33 = [32]; doi:10.1016/j.arabjc.2016.12.026; 32. Cabrera Pérez L.C. Gutiérrez Sánchez M. Mendieta Wejebe J.E. Hernández Rodríguez M. Fragoso Vázquez M.J. Salazar J.R. Correa Basurto J. Padilla Martínez I.I. Rosales Hernández M.C. Novel 5-aminosa || [33]; 33. Correa Basurto J. Rosales Hernández M.C. Mendieta Wejebe J.E. Trujillo Ferrara J.G. Padilla Martínez I.I. Ramírez Durán L.A. Alemán González Duhart D. Síntesis de un derivado del ácido 5-aminosali; conditions: cited from earlier work
myeloperoxidase (MPO) = tested on: myeloperoxidase (MPO); design: method as in ref 32, 33 = [32]; doi:10.1016/j.arabjc.2016.12.026; 32. Cabrera Pérez L.C. Gutiérrez Sánchez M. Mendieta Wejebe J.E. Hernández Rodríguez M. Fragoso Vázquez M.J. Salazar J.R. Correa Basurto J. Padilla Martínez I.I. Rosales Hernández M.C. Novel 5-aminosa || [33]; 33. Correa Basurto J. Rosales Hernández M.C. Mendieta Wejebe J.E. Trujillo Ferrara J.G. Padilla Martínez I.I. Ramírez Durán L.A. Alemán González Duhart D. Síntesis de un derivado del ácido 5-aminosali; conditions: o-dianisidine method; cited from earlier work

For `O=C(/C=C(/Br)C(=O)O)Nc1ccc(O)c(C(=O)O)c1` [Compound C1, 5-{[(2E)-3-bromo-3-carboxyprop-2-enoyl]amino}-2-hydroxybenzoic acid], the LD50 at 14 days ([1]; ip) was > 1100 mg/kg, the LD50 at 14 days ([1]; po) was > 2000 mg/kg and the GHS category (Wistar rats; i.p. route) was 4. The “macroscopic changes at necropsy” value (Wistar rats; liver, small intestine, colon, heart, spleen, stomach, kidneys) was “no macroscopic changes were observed; also recorded: non-macroscopic changes”, the GHS category (Wistar rats; p.o. route) was 5 and the signs of toxicity (Wistar rats; p.o. route, 14 days) was “did not show any signs of apparent toxicity”. For the same compound, the anti-inflammatory activity [2] was “anti-inflammatory agent in mice; also recorded: comparable to that of indomethacin; also recorded: exhibited anti-inflammatory activity” and the “inhibition of myeloperoxidase (MPO)” value (myeloperoxidase (MPO)) was “comparable to that of indomethacin”.
